Laboratory results published in US6730775B1, “Methods for limiting scar and adhesion formation” (University of Southern California, priority 1999, dated 2004).
“Also recorded” adds a separate entry of the source. Where no end group is shown, it is not given here. [ ]: non-standard residue; d: D form. Nle = CCCC[C@H](N)C(=O)O

Tests used:
[1] = system: full thickness incision wounds; experiment: Rat full thickness incision model (Example 2); format: in vivo, Sprague Dawley rats; conditions: for early inflammation and wound dehiscence / number of incisions that were free of scar / overall scar formation: into the subcutaneous space prior to closure with DermaBond; for early inflammation and wound dehiscence: FIG. 1, day 5; for number of incisions that were free of scar: later time points after healing, FIG. 2, days 14, 19, 21; for overall scar formation: later time points, FIG. 3, scar score rank days 14 and 19; for healing time / number of incisions with no scar by gross observations: repeated; for healing time: systemic administration (especially pretreatment with 100 μg/kg body weight/day of 9GD), FIGS. 4-6; for number of incisions with no scar by gross observations: systemic administration, FIGS. 7-9, days 14 and 21
Experimental: This study was designed to compare the effect of a daily administration of AII(1-7) and 9GD on the healing of full thickness incision wounds in a rat model. For topical administration, the viscous vehicle was prepared from carboxymethylcellulose (CMC sodium salt, low viscosity, Sigma Chemical CO., St. Louis, Mo. (Lot number 34H0310)), consisting of 10% low viscosity CMC in 0.05 M phosphate buffer, pH 7.2, and was sterilized by autoclaving followed by mixing with sterile peptide solutions or DermaBond (provided by Ethicon, Inc.), AII(1-7) and 9GD were prepared by Bachem (Torrence, Calif.) under GMP conditions.
During the experimental period, Sprague Dawley rats (5 per group) were used in this study. The rats were housed one per cage in the University of Southern California vivarium on a 12:12 hour light/dark cycle. Food and water were available ad libitum.
On the dorsal surface of the rats, two full thickness incisions (approximately 3 cm in length) were made on a prepared surface under aseptic conditions. After injury, placebo or AII(1-7) (100 μg/wound [topical], or 100 μg/kg body weight [systemic]) or 9GD (10, 100, or 500 μg/wound [topical], or 10, 100, or 500 μg/kg body weight [systemic]) was administered. The wound was sutured closed (if the peptide was not given in an adhesive base) or was closed with […] (in groups that have the peptide administered with cyanoacrylate (DermaBond™)).
The animals were monitored for breathing, urination, and movement during the postoperative interval. Postoperative analgesic included twice daily administration of bupronex for 3 days post-operation. […] On day 21, the rats were euthanized by CO2 asphyxiation and tissues were harvested for histologic preparation.
Scar formation was assessed grossly, including assessment of inflammationh, dehiscence, scabbing, healing (defined as % of incision healed), and scarring. Inflammation, dehiscence, scabbing, and scarring were assessed on a 4 point scale (0, 1, 2, or 3) for none, mild, moderate, and severe, respectively. The severity of the scar was defined by the appearance of disruption, the contour of the healing site, the raising of the healing area, and the ability to note by gross observation that the wound had been made.

wound tissue = conditions: application to wound tissue; cited from earlier work
[2] = system: cultured cells that are involved in wound repair; conditions: cited from earlier work
rabbit corneal eye = rabbit corneal eye model; cited from earlier work
[3] = system: chick chorioallantoic membrane; conditions: chick chorioallantoic membrane model; cited from earlier work
[4] = system: primary human keratinocytes; conditions: via a non-AT1, non-AT2 receptor; cited from earlier work
[5] = system: 2 cm midline laparotomy incision; experiment: Anti-scarring effect after rat laparotomy (Example 1); format: in vivo, Sprague Dawley rats; conditions: 100 μg/kg/day subcutaneously, 3 days prior to surgery and 11 days until necropsy; 11 day post-operative observation
Experimental: Female Sprague Dawley rats, weighing between 175 and 225 grams each, were used in this study. The rats were quarantined at least two days prior to surgery. The rats were housed in the University of Southern California vivarium on a 12:12 hour light/dark cycle. Food and water were available ad libitum except in the immediate postoperative period.
The rats underwent a standardized procedure for laparotomy (intramuscular anesthesia with ketamine/rompum, shaving with animal clippers, betadine scrub, alcohol scrub). A 2 cm incision was then made on the midline. A double-walled gelatin capsule was placed on the right side of the abdomen through the incision. The animals were subcutaneously injected with the peptides (detailed below) (100 μg/kg/day) for 3 days prior to surgery, and then for 11 days until necropsy. The abdominal wall and skin was then sutured closed using two layers of 4-0 Ethilon suture. Following surgery, the rats received analgesic for three days and were observed twice daily for signs of morbidity and mortality.

[6] = Unspecified test of effectiveness of AII fragments; conditions: test not specified
[7] = single dose in CMC in the subcutaneous space, FIG. 10
[8] = single dose in CMC in the subcutaneous space, FIG. 11

## Asp-Arg-Val-Tyr-Ile-His-Pro (DRVYIHP) [AII(1-7)]
[1]
  early inflammation and wound dehiscence: reduced
  number of incisions that were free of scar: increased
  overall scar formation: increased
  healing time: accelerated
  number of incisions with no scar by gross observations: increased
[1]; [7]
  healing: accelerated healing
[1]; [8]
  scar formation: reduced scar formation
[1]; single dose, systemic
  healing: did not accelerate healing
  scar formation: did reduce scar formation

## Asp-Arg-Val-Tyr-Ile-His-Pro-Phe [AII]
Wound tissue
  rate of wound healing: significantly increases
[2]
  mitogenesis and chemotaxis: increases
  release of growth factors and extracellular matrices: increases
Rabbit corneal eye
  angiogenic: angiogenic
[3]
  angiogenic: angiogenic
[4]
  proliferation of primary human keratinocytes: stimulate proliferation

## DR(nor)YIHP (DR[Nle]YIHP) [9GD]
[5]
  scar apparent upon gross observation: no scar was apparent
  wound closure: complete
[1]
  early inflammation and wound dehiscence: reduced
  number of incisions that were free of scar: increased
  overall scar formation: increased
  healing time: accelerated
  number of incisions with no scar by gross observations: increased
[1]; [7]
  healing: accelerated healing
[1]; [8]
  scar formation: reduced scar formation
[1]; single dose, systemic
  healing: did not accelerate healing
  scar formation: did reduce scar formation

## DRKYIHP [5GD]
[5]
  scar apparent upon gross observation: no scar was apparent
  wound closure: complete

## His-Pro-Phe (HPF) [AII(6-8)]
[6]
  effectiveness: not to be effective

## Tyr-Ile-His-Pro-Phe (YIHPF) [AII(4-8)]
[6]
  effectiveness: not to be effective; also recorded: ineffective
